Legend:
[1] = test system: adult human mesangial cells; assay: Renin-induced TGFβ and fibronectin production by adult human mesangial cells (ELISA); assay type: cell-based; settings: 10^−5 M inhibitor added at zero time with 10^−7 M human recombinant renin, adult cells, FIG. 7
Description: Primary cultures of adult human mesangial cells were grown from human nephrectomy tissues using standard methods. Cells were passaged 4-7 times and then plated (3,000 cell/cm^2) in 12 well plates in 2 ml of medium (Mesangial Basal Medium (Clonetics Corp.) containing 5% FCS, 10 μg/ml penicillin and 100 μg/ml streptomycin) and allowed to grow to 70% confluency for 48 hours at 37EC, 5% CO2. Cultures were washed three times using sterile phosphate buffered saline at room temperature and then 2 ml/well of serum free MBM medium to induce quiescence. After 48 hours, the serum-free medium was removed and 2 ml/well of fresh serum-free medium was added for 24 hours. Human recombinant renin (HrRenin, Hoffman-La Roche Ltd., Basel, Switzerland) in concentrations from 10^−6 to 10^−12 M was added to each well for 24 hours. A blank (no HrRenin) was used as a control. Cells and supernatants were harvested by centrifugation after 24 hrs of culture and frozen at ^−70EC until analysis.
The total production and release of TGFβ into the culture supernatant was measured using an ELISA kit (R & D Systems). Induction of the matrix protein fibronectin (Fn) in the supernatant was measured using anti-fibronectin antibodies in an ELISA to provide further confirmation of induction of TGFβ. Renin-induced induction of TGFβ, fibronectin and PAI-1 mRNA were measured over time using semi-quantitative RT-PCR in a multiplex system where multiple cDNAs are amplified simultaneously according to Dostal et al., Anal. Biochem. 223:239-250 (1994), incorporated by reference herein Determinations were done in triplicate mesangial cell cultures.
Renin inhibitor Ro42-5892 (Hoffman-LaRoche, Basel, Switzerland), Losartan™ (Merck Pharmaceuticals, West Point, Pa.), Enalapril™ (Sigma Chemical Co., St. Louis, Mo., Prod. No. E6888), or TGFβ1 neutralizing antibody (R & D Systems) were added in the amounts indicated below to separate wells in triplicate to block the renin cascade at different sites after stimulation by renin: • 10^−5 M Renin Inhibitor R042-5892 (Hoffman-LaRoche) • 10^−5 M Enalapril™ (Sigma Chemical Co., St. Louis, Mo.) • 10^−5 M Losartan™ (Merck Pharmaceuticals, West Point, Pa.) • Controls included neutralizing antibody to TGFβ (ATG) and control IgG (TgG)
These inhibitors were added at zero time with 10^−7 M human recombinant renin (Hoffman-LaRoche).

[2] = test system: anti-Thy 1 glomerulonephritis; assay: Glomerular production of fibronectin, PAI-1 and TGF-β1 (ELISA of cultured glomeruli); assay type: in vivo, Sprague Dawley rats; settings: enalapril alone
Description: Animal housing and care were in accordance with the NIH Guide for the Care and Use of Laboratory Animals, NIH Publication No. 85-23, 1985. Animals were fed a normal protein diet (22% protein, Teklad No. 86 550, Teklad Premier Laboratory Diets, Madison, Wis., USA). Glomerulonephritis was induced by tail vein injection of 2.25 mg/Kg of the monoclonal anti-Thy 1.1 antibody OX-7 (NCCC, Biovest International Inc, Minneapolis, Minn., USA). OX-7 binds to a Thy 1-like epitope on the surface of mesangial cells causing complement-dependent cell lysis followed by fibrotic tissue repair (Bagchus et al., Lab Invest. 55:680-687 (1986)). Control animals were injected with similar volumes of phosphate-buffered saline (PBS). Groups of 8 rats were assigned and treated as outlined in Table 2. Doses of enalapril above […] in drinking water are maximally effective in this model (Peters et al., Kidney Int. 54:1570-1580 (1998)). […] Fibronectin and PAI-1 synthesis were measured with modified ELISA assays according to published methods ([…] al., Anal Biochem 104:205-214 (1980)). TGF-β1 production of cultured glomeruli was measured after acid-activation using a commercially available ELISA kit (DuoSet®, R&D Systems, Minneapolis, Minn., USA) according to the manufacturer's instructions. Three samples from each rat were analyzed. […] The percent reduction in disease severity in a treated group was calculated as: […]

CCOC(=O)[C@H](CCc1ccccc1)N[C@@H](C)C(=O)N1CCC[C@H]1C(=O)O [enalapril]
renin-induced increase in TGFβ production [1]: does not reduce the renin-induced increase in TGFβ production
reduction of fibronectin production [2]: 53%

— patent publication US7763580B2, “Methods for treating conditions associated with the accumulation of excess extracellular matrix” (University of Utah Research Foundation, priority 1999, dated 2010)
